What all share (experiment): inhibition of tumour cell growth, NCI panel, 48 h
In assay [1] the test system is EKVX NSCLC.
Assay [2] concerns HCC-2998 colon.
Assay [3] concerns NCI-H226 lung.
For assay [4], the system named is OVCAR-4 ovarian.
Assay [5] concerns SF-539 CNS.
The test system of assay [6] is SK-OV-3 ovarian.
The test system of assay [7] is SNB-75 CNS.

Results on 28 compounds are retold here after PubChem BioAssay (NCI).

Where “and” joins values, the source holds several entries; their conditions need not be identical. Identical values can stand only once.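 The compound was tested at five concentrations on cells cultured in 96-well plates, with a 48-hour exposure period. Here, GI50 denotes the concentration required for 50% inhibition of growth. TGI denotes the concentration required for complete inhibition of growth.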

As to `CCc1ccccc1NC(=O)CCc1n[nH]c(=S)o1`, the TGI in assay [1], in assay [2], in assay [3], in assay [4], in assay [5] and in assay [6] was above 100 µM each time. For the same compound, the TGI in assay [7] was above 100 µM.

Regarding `COC(=O)C(C(=O)C(=O)NC1=C(Cl)C(=O)c2ccccc2C1=O)c1csc(-n2nc(-c3ccccc3)cc2-c2ccccc2)n1` (stereo not drawn), the TGI was above 100 µM in assay [1]; above 100 µM in assay [2]; above 100 µM in assay [3]; above 100 µM in assay [4]; above 100 µM in assay [6]; 9.4 µM in assay [7].

Consider `O=c1c2ccccc2nc(-c2ccc(Br)cc2)n1NC1OC(CO)C(O)C(O)C1O` (stereo not drawn), for which the TGI in assay [1], in assay [2], in assay [3], in assay [4], in assay [5] and in assay [6] was above 100 µM throughout. This compound also came in with a TGI in assay [7] above 100 µM.

Turning to `C/C=C/C=N/N(C(=O)c1cc([N+](=O)[O-])cc([N+](=O)[O-])c1)C1=NC(c2ccccc2)C(c2ccccc2)=NN1` (stereo not drawn), the TGI in assay [1], in assay [2], in assay [3], in assay [4], in assay [5] and in assay [6] was above 100 µM each time. In assay [7], this compound had a TGI above 100 µM.

On to `NC(=O)N/N=C(\C(=O)C(=O)Nc1ccc(Cl)c(C(F)(F)F)c1)c1nc2ccc(C(=O)c3ccccc3)cc2[nH]c1=O`, for which the TGI in assay [1], in assay [2], in assay [3], in assay [4], in assay [5] and in assay [6] was above 100 µM in each case.

As for `CC(=O)OCc1cc(OC(C)=O)cnc1COC(C)=O`, the TGI in assay [1], in assay [3], in assay [4], in assay [5], in assay [6] and in assay [7] was above 100 µM each time.

With `CC(C)NCC(O)COC(=O)c1cccs1` (stereo not drawn), the TGI in assay [1], in assay [2], in assay [4], in assay [6] and in assay [7] was above 100 µM throughout.

Consider `CCC(C)OC(=O)C1C2CCC(O2)C1C(=O)O` (stereo not drawn), for which the TGI in assay [1], in assay [2], in assay [3], in assay [4], in assay [5] and in assay [6] was above 100 µM each time. For the same compound, in assay [7], the TGI was above 100 µM.

Turning to `O=C(O)c1ccc(O)c(N=Nc2cc(S(=O)(=O)O)c3ccccc3c2O)c1`, the TGI in assay [1] is above 100 µM; in assay [2], above 100 µM; in assay [3] it was above 100 µM; in assay [4] it was above 100 µM; in assay [5] it was above 10 µM; in assay [6] it was above 10 µM. In assay [7], this compound showed a TGI above 100 µM.

In the case of `CC(=O)NC(CCCCNC(=O)N(CCCl)N=O)C(=O)NCc1ccccc1` (stereo not drawn), the TGI in assay [1], in assay [2], in assay [3], in assay [4], in assay [5] and in assay [7] was above 100 µM in each case.

Take `Cc1ccc([N+](=O)[O-])cc1NC(=O)C(=O)Cc1occc(=O)c1O`: the TGI in assay [1], in assay [2], in assay [3], in assay [5], in assay [6] and in assay [7] was above 100 µM each time.

On to `C#CCOCn1cnc2c(=S)nc[nH]c21`, for which the TGI in assay [1] is above 100 µM; in assay [2] it was above 100 µM; in assay [3], above 100 µM; in assay [4], above 100 µM; in assay [6], above 100 µM; in assay [7] it was 98.9 µM.

On to `COC(=O)C(C(=O)C(=O)Nc1ccccc1C(C)=O)c1nc2ccc(Cl)cc2[nH]c1=O` (stereo not drawn), for which the TGI in assay [1], in assay [2], in assay [3], in assay [4], in assay [5] and in assay [6] was above 100 µM throughout. For the same compound, the TGI in assay [7] was above 100 µM.

As to `CCC1=C(C)/C(=C/c2[nH]c(CBr)c(CC)c2C)N=C1CBr`, the TGI in assay [1] was 49.1 µM; in assay [2] it was 26.3 µM; in assay [4], above 100 µM; in assay [5], 38.2 µM; in assay [6] it was 45 µM; in assay [7], 55.9 µM.

`O=C1C(=O)N(C(=O)c2ccc(Cl)c(Cl)c2)c2ccc(Cl)cc21`: the TGI in assay [1], in assay [3], in assay [4], in assay [5], in assay [6] and in assay [7] was above 100 µM each time.

`CC1(C)OC(C(N)=O)=C(C(N)=O)O1`: the TGI in assay [1], in assay [2], in assay [3], in assay [4], in assay [5] and in assay [6] was above 100 µM each time. The same compound gave a TGI in assay [7] above 100 µM.

As for `ClC1CCC2OOC1O2` (stereo not drawn), the TGI in assay [1], in assay [2], in assay [3], in assay [4], in assay [5] and in assay [6] was above 100 µM throughout. This compound had a TGI in assay [7] above 100 µM.

As for `C[C@@H](CO)OCOCc1ccccc1`, the TGI in assay [2], in assay [4], in assay [5], in assay [6] and in assay [7] was above 100 µM each time.

As for `Cc1oc2c(C)c(O)c3c(c2c1C1(C)OCCO1)C(=O)C=C(Cl)C3=O`, the TGI in assay [1], in assay [3], in assay [4] and in assay [5] was above 100 µM each time.

Take `COc1cc2ccc3c4c(OC)cc(OC)c(OC)c4c(=O)n(C)c3c2cc1OC`: the GI50 in assay [1] is 5.65 µM; in assay [4], 2.67 µM; in assay [5], 2.74 µM; in assay [7], 3.25 µM. The TGI in assay [1] is 16.7 µM and > 48.7 µM; in assay [2] it was above 36.1 µM; in assay [3], above 42 µM; in assay [4], 8.32 µM and > 45.8 µM; in assay [5], 10.5 µM and > 47.4 µM; in assay [6], above 47.8 µM. For the same compound, the TGI in assay [7] is 14.5 µM and > 42.5 µM.

Consider `O=C(/C=C\c1cccc2ccccc12)c1cccs1`, for which the TGI in assay [1] turned out to be 25.9 µM; in assay [2] it was 30 µM; in assay [4] it was 32.9 µM; in assay [5], 34.9 µM; in assay [6], 31.7 µM; in assay [7], 61.3 µM.

`COC(=O)/C(C#N)=C1\CCC(O)N1C` (stereo not drawn): the TGI in assay [1], in assay [2], in assay [3], in assay [4], in assay [5] and in assay [6] was above 100 µM each time. Besides, the TGI in assay [7] is above 100 µM.

As to `Nc1ncnc(NC2C=C(CO)C(O)C2O)c1[N+](=O)[O-]` (stereo not drawn), the TGI in assay [1], in assay [2], in assay [3], in assay [4], in assay [5] and in assay [6] was above 100 µM in each case. For the same compound, the TGI in assay [7] is above 100 µM.

`CN(C)C(=O)/N=c1\ss/c(=N\C(=S)N(C)C)n1-c1ccccc1`: the TGI in assay [1] is above 100 µM; in assay [2], above 100 µM; in assay [3], above 100 µM; in assay [4] it was 60.2 µM; in assay [5], above 78.4 µM; in assay [6] it was above 100 µM. Besides, in assay [7], the TGI was found to be 71.1 µM.

Turning to `Cc1ccccc1NC(=O)C(=O)C(c1cnc2ccc([N+](=O)[O-])cc2n1)[N+](=O)[O-]` (stereo not drawn), the TGI in assay [1], in assay [2], in assay [3], in assay [4], in assay [5] and in assay [6] was above 100 µM in each case. In assay [7], this compound displayed a TGI above 100 µM.

Turning to `N=C1N(c2ccccc2)C(=O)C23CCCC2C13N1CCOCC1` (stereo not drawn), the TGI in assay [1], in assay [2], in assay [3], in assay [4], in assay [5] and in assay [6] was above 100 µM throughout. The compound also registered a TGI in assay [7] above 100 µM.

In the case of `COC(=O)C(=O)C(C(=O)C(=O)Nc1ccc(Cl)cc1C)c1nc2ccc(C(=O)c3ccccc3)cc2[nH]c1=O` (stereo not drawn), the TGI in assay [1], in assay [2], in assay [3], in assay [4], in assay [5] and in assay [6] was above 100 µM in each case. For the same compound, the TGI in assay [7] is above 100 µM.

Consider `COc1ccc(C(c2ccc(C(C)C)cc(=O)c2O)c2ccc3cccnc3c2O)cc1` (stereo not drawn), for which the TGI in assay [1] is 7.86 µM; in assay [3], 4.38 µM; in assay [4], 23.9 µM; in assay [5] it was 2.29 µM; in assay [6], 16.4 µM; in assay [7], 0.589 µM.
